The values below are quoted from earlier work in paper PMC5384962, “First-in-human studies of seletalisib, an orally bioavailable small-molecule PI3Kδ inhibitor for the treatment of immune and inflammatory diseases” (European Journal of Clinical Pharmacology, 2017).

On the set-up of the series: method as in ref 29 = [29]; 29. Infinity Pharmaceuticals (2015) Press release: Infinity reports topline results from Phase 2 study of duvelisib in rheumatoid arthritis. Particulars: patients with moderate-to-severe RA; cited from earlier work.

Turning to `C[C@H](Nc1ncnc2nc[nH]c12)c1cc2cccc(Cl)c2c(=O)n1-c1ccccc1` [duvelisib], the “phase II primary endpoint (ACR20 at week 12)” value was “failed to meet its phase II study primary endpoint”.
